Experiment: solvent given as SMILES
[1] = in c1cc(-n2c3ccccc3c3ccccc32)cc(-n2c3ccccc3c3ccccc32)c1
[2] = in O=P(c1ccccc1)(c1ccccc1)c1ccccc1Oc1ccccc1P(=O)(c1ccccc1)c1ccccc1

CCOc1cc2c(cc1/C=C/C1=CC(=C(C#N)C#N)CC(C)(C)C1)c1ccccc1n2CC
fluorescence lifetime (in C1CCOC1): 4.47 ns
fluorescence lifetime (in CC#N): 3.81 ns
fluorescence lifetime (in CCO): 4.28 ns
fluorescence lifetime (in CCOC(C)=O): 7.08 ns
fluorescence lifetime (in CN(C)C=O): 4.01 ns
fluorescence lifetime (in CS(C)=O): 4.94 ns
fluorescence lifetime (in Cc1ccccc1): 3.84 ns
fluorescence lifetime (in ClC(Cl)Cl): 4.37 ns
fluorescence lifetime (in ClCCl): 6.24 ns

CC(C)(C)c1ccc2c(c1)c1cc(C(C)(C)C)ccc1n2-c1ccc(-c2ccc3c(c2)C2(c4cc(-c5ccc(-n6c7ccc(C(C)(C)C)cc7c7cc(C(C)(C)C)ccc76)cc5)ccc4-3)c3ccccc3S(=O)(=O)c3ccccc32)cc1
fluorescence lifetime (in ClCCl): 1.8 ns

CCn1c2ccccc2c2cc(-c3cc(-c4ccc5c(c4)c4ccccc4n5CC)nc(-c4ccccc4)n3)ccc21
fluorescence lifetime (in C1CCOC1): 1.77 ns

CCc1ccc(-n2c3ccccc3c3cc4c(cc32)c2ccccc2n4-c2ccc(CC)cc2)cc1
fluorescence lifetime (in ClC(Cl)Cl): 3.62 ns

CN(C)c1ccc(C2=Nc3sc4ccccc4[n+]3[B-](F)(F)O2)cc1
fluorescence lifetime (in Cc1ccccc1): 1.74 ns

[O-][n+]1c(-c2ccc(Br)cc2)cc(N2CCOCC2)nc1/C=C/c1ccccc1
fluorescence lifetime (in ClCCl): 3.7 ns

N#Cc1ccc2nc3c(=O)[nH]c(=O)[nH]c3nc2c1
fluorescence lifetime (in ClCCCl): 0.16 ns

COc1ccc2cc(-c3ccccc3CC#N)c(=O)oc2c1
fluorescence lifetime (in ClC(Cl)Cl): 2.4 ns

COc1ccc(-c2ccc3c(c2)c2cc(-c4ccc(OC)cc4)ccc2n3-c2ccc(C(=O)c3ccc4sc5ccccc5c4c3)nc2)cc1
fluorescence lifetime [1]: 8.4 ns

F[B-]1(F)OC(c2ccc(N3CCCC3)cc2)=Cc2cccc[n+]21
fluorescence lifetime (in ClC(Cl)Cl): 2.72 ns

Cc1ccc2sc3cc(CCC(=O)O)ccc3c(=O)c2c1
fluorescence lifetime (in CC#N): 0.07 ns
fluorescence lifetime (in CC(C)O): 1.3 ns
fluorescence lifetime (in CCO): 1.7 ns
fluorescence lifetime (in CO): 2.55 ns
fluorescence lifetime (in OCCO): 4.6 ns

Cc1ccc(-c2ccc(-c3ccc(C)cc3)c(/C(=C(/c3ccccc3)c3cc(-c4ccc(C)cc4)ccc3-c3ccc(C)cc3)c3ccccc3)c2)cc1
fluorescence lifetime (in C1CCOC1): 8 ns

CSc1sc(C(C)=O)c2nn[nH]c(=O)c12
fluorescence lifetime (in C1CCOC1): 0.42 ns
fluorescence lifetime (in CC#N): 0.75 ns
fluorescence lifetime (in CCO): 0.41 ns
fluorescence lifetime (in CN(C)C=O): 0.25 ns
fluorescence lifetime (in CO): 0.33 ns
fluorescence lifetime (in CS(C)=O): 0.15 ns

O=C1c2ccc3c4ccc5c6c(ccc(c7ccc(c2c37)C(=O)N1c1ccncc1)c64)C(=O)N(c1ccncc1)C5=O
fluorescence lifetime (in C1CCOC1): 1.92 ns
fluorescence lifetime (in C1COCCO1): 3.27 ns
fluorescence lifetime (in CC(C)=O): 2.9 ns
fluorescence lifetime (in CC(C)O): 1.74 ns
fluorescence lifetime (in CCCCO): 1.85 ns
fluorescence lifetime (in CCO): 0.77 ns
fluorescence lifetime (in CCOC(C)=O): 1.34 ns
fluorescence lifetime (in CN(C)C=O): 1.69 ns
fluorescence lifetime (in CO): 0.79 ns
fluorescence lifetime (in CS(C)=O): 0.22 ns
fluorescence lifetime (in ClC(Cl)(Cl)Cl): 3.75 ns
fluorescence lifetime (in ClC(Cl)Cl): 3.74 ns

Cc1ccc2nc3c(=O)[nH]c(=O)[nH]c3nc2c1
fluorescence lifetime (in CC#N): 0.4 ns
fluorescence lifetime (in ClCCCl): 0.32 ns

Cc1cccc(C2=Cc3ccc4ccccc4[n+]3[B-](F)(F)O2)c1
fluorescence lifetime (in ClC(Cl)Cl): 1.58 ns

CC(C)(C)c1ccc(-c2nnc(-c3c(-n4c5ccccc5c5ccccc54)c(-n4c5ccccc5c5ccccc54)c(-n4c5ccccc5c5ccccc54)c(-n4c5ccccc5c5ccccc54)c3-n3c4ccccc4c4ccccc43)o2)cc1
fluorescence lifetime (in Cc1ccccc1): 2.9 ns

CCOC(=O)CCCCCn1c2ccc(C)cc2c(=O)c2cc3c(cc21)c(=O)c1cc(C)ccc1n3CCCCCC(=O)OCC
fluorescence lifetime (in CO): 22 ns

CCN(CC)c1ccc2c(c1)oc(=O)c1c(C)nc3c(c(-c4ccccc4)nn3-c3ccccc3)c12
fluorescence lifetime (in ClCCl): 3.51 ns

CC(C)(C)c1ccc2c(c1)c1cc(C(C)(C)C)ccc1n2-c1cc(N2c3ccccc3C(c3ccccc3)(c3ccccc3)c3ccccc32)cc(-n2c3ccc(C(C)(C)C)cc3c3cc(C(C)(C)C)ccc32)c1C#N
fluorescence lifetime (in Cc1ccccc1): 14.2 ns

c1ccc(-c2nc(-c3ccccc3)nc(-c3cc(-n4c5ccccc5c5ncccc54)c(-n4c5ccccc5c5ccccc54)c(-n4c5ccccc5c5ncccc54)c3)n2)cc1
fluorescence lifetime [2]: 6 ns

CN(C)c1ccc(C(=Cc2ccc(/C=C/c3ccc(C#N)cc3)cc2)c2ccc(N(C)C)cc2)cc1
fluorescence lifetime (in C1CCOC1): 1 ns

N#Cc1coc2ccccc2c1=O
fluorescence lifetime (in C1CCOC1): 0.93 ns
fluorescence lifetime (in C1COCCO1): 3.6 ns
fluorescence lifetime (in CC#N): 2.17 ns
fluorescence lifetime (in CC(C)O): 1.86 ns
fluorescence lifetime (in CCCCO): 0.96 ns
fluorescence lifetime (in CCCO): 2.03 ns
fluorescence lifetime (in CCOC(C)=O): 1.05 ns
fluorescence lifetime (in CN(C)C=O): 1.77 ns
fluorescence lifetime (in CO): 0.59 ns
fluorescence lifetime (in CS(C)=O): 1.92 ns
fluorescence lifetime (in ClC(Cl)Cl): 2.54 ns
fluorescence lifetime (in O): 1.36 ns

O=c1oc2c(ccc3ccccc32)nc1-c1ccccc1
fluorescence lifetime (in c1ccccc1): 6 ns

COc1cc(OC)c2cc(-c3ccccc3CC#N)c(=O)oc2c1
fluorescence lifetime (in ClC(Cl)Cl): 2.8 ns

CC1(C)c2ccccc2-c2cc3c4cc(-n5c6ccccc6c6ccccc65)ccc4n(-c4ccc(-c5nc(-c6ccccc6)nc(-c6ccccc6)n5)cc4)c3cc21
fluorescence lifetime [2]: 34 ns

Cn1c2ccccc2c2cc(/C=C/C3=[O+][B-](F)(F)OC(/C=C/c4ccc5c(c4)c4ccccc4n5C)=C3c3ccccc3)ccc21
fluorescence lifetime (in ClCCl): 2.15 ns

c1ccc(-c2cc(-c3ccccc3)cc(-c3ccc4c(c3)C3(c5ccccc5-4)c4ccccc4-c4c3c3c5ccccc5c(-c5cc(-c6ccccc6)cc(-c6ccccc6)c5)cc3c3ccccc43)c2)cc1 (stereo not given)
fluorescence lifetime (in Cc1ccccc1): 2.14 ns

O=C(c1ccc(N2c3ccccc3[Si](c3ccccc3)(c3ccccc3)c3ccccc32)cc1)c1ccc(N2c3ccccc3[Si](c3ccccc3)(c3ccccc3)c3ccccc32)cc1
fluorescence lifetime [1]: 134 ns

Cc1ccc2nc3[nH]c(=O)[nH]c(=O)c3nc2c1C
fluorescence lifetime (in CC#N): 2.41 ns

From the Deep4Chem optical property database
